Laboratory results published in patent US20150031674A1, “SERINE/THREONINE KINASE INHIBITORS” (GENENTECH, INC., priority 2013, published 2015).

Legend:
[1] = tested on: group I PAKs in EBC1 cells (MEK1 phosphorylation at S298); assay: Cellular PAK IC50 Assay: MEK1 phosphorylation at S298 by HTRF; type: cell-based; conditions: Homo sapiens, EBC-1, 2 h treatment, media containing 0.1% FBS, phospho-MEK1 (S298) HTRF
Experimental: Cellular PAK IC50 Assay Protocol
Group I PAKs (PAK1-3) are activated upon binding to the Rho GTPases, Rac1 and Cdc42. Activated group I PAKs phosphorylate MEK1 at Serine 298 (S298), one of the two sites in the catalytic domain that is important for stable association between Raf and MEK1 and subsequent MAPK activation. The inhibition of group I PAKs in EBC1 cells is assessed by detecting changes in the level of MEK1 phosphorylation at S298 using homogenous time-resolved fluorescence (HTRF). Inhibitory activity was estimated by treating 2×10^4 EBC1 cells for 2 h with PAK inhibitors in media containing 0.1% FBS. Following inhibitor treatment, cells were lysed with 25 μL of 1× cellular kinase lysis buffer (Cisbio) containing 1× cellular kinase blocking reagent (Cisbio). Cellular lysis was carried out at 4° C. for 2 h with constant shaking before lysate (16 μL) was transferred to white 384-well ProxiPlates™ (Perkin Elmer). Anti-total MEK1 antibody labeled with Europium cryptate donor (1 ng/well) (Cell Signaling Technologies catalog number 2352) and anti-phospho MEK1 (S298) antibody labeled with d2 acceptor (Cell Signaling Technologies catalog number 9128) (10 ng/well) were prepared in 1× detection buffer (CisBio) and added to each well of the assay plate and allowed to incubate at RT overnight. The following day the fluorescence emission from each well was measured in EnVision® (Perkin Elmer) at an excitation of 330 nm and dual emission wavelengths of 615 nm and 665 nm. The signal in each well at 665 nm was multiplied by 10,000 and divided by the signal in the same well at 615 nm to obtain a ratio. Ratio values ([665·10,000]÷615) were plotted as a function of the concentration of compound to determine IC50 values.

[2] = molecular target: human recombinant PAK1-KD protein (Homo sapiens, UniProt Q13153); assay: PAK1-KD (Kinase Domain) IC50 Zlyte Assay (FRET peptide substrate phosphorylation); conditions: Z'-LYTE, Biological Example 1
human recombinant PAK1-KD protein, sequence (Q13153 270-521 limits assumed): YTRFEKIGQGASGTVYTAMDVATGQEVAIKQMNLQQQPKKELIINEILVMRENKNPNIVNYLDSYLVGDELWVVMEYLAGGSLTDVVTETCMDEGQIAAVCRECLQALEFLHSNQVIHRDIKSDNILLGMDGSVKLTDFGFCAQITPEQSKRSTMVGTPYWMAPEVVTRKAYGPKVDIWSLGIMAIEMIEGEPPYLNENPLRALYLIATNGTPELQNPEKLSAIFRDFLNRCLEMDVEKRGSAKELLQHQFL

`CCNc1ncc2cc(-c3ccc(-c4cncc(C)n4)cc3Cl)c(=O)n(CCOC3CCNC3)c2n1` (stereo not shown) [Example I-13, 6-(2-Chloro-4-(6-methylpyrazin-2-yl)phenyl)-2-(ethylamino)-8-(2-(pyrrolidin-3-yloxy)ethyl)pyrido[2,3-d]pyrimidin-7(8H)-one] was tested. Which IC50 [1] did it give?
Its IC50 is 180 nM.

What about the Ki [2] of the same compound?
Its Ki is 5.8 nM.

How did the IC50 [1] turn out when `Cc1cncc(-c2ccc(-c3cc4cnc(N)nc4n(C[C@H]4CC[C@H](N)CC4)c3=O)c(Cl)c2)n1` [Example I-9, 2-Amino-8-(((1r,4r)-4-aminocyclohexyl)methyl)-6-(2-chloro-4-(6-methylpyrazin-2-yl)phenyl)pyrido[2,3-d]pyrimidin-7(8H)-one] was run?
The IC50 was 358 nM.

What about the Ki [2] of the same compound?
The Ki was 14 nM.

Which IC50 [1] does the source give for `CCNc1ncc2cc(-c3ccc(-c4cncc(C)n4)cc3Cl)c(=O)n(C3COC4(CCNC4)C3)c2n1` (stereo not shown) [Example I-75, 6-[2-Chloro-4-(6-methylpyrazin-2-yl)phenyl]-2-(ethylamino)-8-(1-oxa-7-azaspiro[4.4]nonan-3-yl)pyrido[2,3-d]pyrimidin-7-one] here?
The IC50 was 197 nM.

And the Ki [2]?
The Ki was 20.3 nM.

For `Cc1cccc(-c2ccc(-c3cc4cnc(NCC(F)F)nc4n(CCN4CCNCC4)c3=O)c(Cl)c2)n1` [Example I-89, 6-[2-Chloro-4-(6-methyl-2-pyridyl)phenyl]-2-(2,2-difluoroethylamino)-8-(2-piperazin-1-ylethyl)pyrido[2,3-d]pyrimidin-7-one], which IC50 [1] is on record?
The IC50 was 57.7 nM.

And the Ki [2]?
Its Ki is 7.8 nM.

For `CCNc1ncc2cc(-c3ccc(-c4cncc(C)n4)cc3Cl)c(=O)n(CCOC3CNC3)c2n1` [Example I-11, 8-(2-(Azetidin-3-yloxy)ethyl)-6-(2-chloro-4-(6-methylpyrazin-2-yl)phenyl)-2-(ethylamino)pyrido[2,3-d]pyrimidin-7(8H)-one], which IC50 [1] is on record?
Its IC50 is 189 nM.

What about the Ki [2] of the same compound?
Its Ki is 6.94 nM.

With `CCNc1ncc2cc(-c3ccc(-c4cncc(C)n4)cc3Cl)c(=O)n(CCC3CNCCO3)c2n1` (single isomer, unassigned) [Example I-22] as the compound, how does the IC50 [1] read?
The IC50 was 63.5 nM.

What about the Ki [2] of the same compound?
The Ki was 8.9 nM.

How did the IC50 [1] turn out when `CCNc1ncc2cc(-c3ccc(-c4cncc(C)n4)cc3Cl)c(=O)n(CCCC(N)=O)c2n1` [Example I-3, 4-[6-[2-Chloro-4-(6-methylpyrazin-2-yl)phenyl]-2-(ethylamino)-7-oxo-pyrido[2,3-d]pyrimidin-8-yl]butanamide] was run?
The IC50 was 506 nM.

What about the Ki [2] of the same compound?
Its Ki is 47.4 nM.

How did the IC50 [1] turn out when `CCNc1ncc2cc(-c3ccc(-c4cncc(C)n4)cc3Cl)c(=O)n(CC(=O)N3CCNCC3)c2n1` [Example I-8, 6-(2-Chloro-4-(6-methylpyrazin-2-yl)phenyl)-2-(ethylamino)-8-(2-oxo-2-(piperazin-1-yl)ethyl)pyrido[2,3-d]pyrimidin-7(8H)-one] was run?
Its IC50 is 1500 nM.

And the Ki [2]?
Its Ki is 30.9 nM.

Which results are given for `Cc1cncc(-c2ccc(-c3cc4cnc(N)nc4n(CC4OCC(N)CO4)c3=O)c(Cl)c2)n1` (stereo not shown) [Example I-56, 2-Amino-8-[((2s,5s)-5-amino-1,3-dioxan-2-yl)methyl]-6-[2-chloro-4-(6-methylpyrazin-2-yl)phenyl]pyrido[2,3-d]pyrimidin-7-one and 2-amino-8-[((2r,5r)-5-amino-1,3-dioxan-2-yl)methyl]-6-[2-chloro-4-(6-methylpyrazin-2-yl)phenyl]pyrido[2,3-d]pyrimidin-7-one]?
IC50 [1]: 426 nM; Ki [2]: 18.6 nM

For `Cc1cccc(-c2ccc(-c3cc4cnc(N)nc4n(CCC4CNCCO4)c3=O)c(Cl)c2)n1` (racemic) [Example I-127, 2-Amino-6-[2-chloro-4-(6-methyl-2-pyridyl)phenyl]-8-(2-morpholin-2-ylethyl)pyrido[2,3-d]pyrimidin-7-one], which IC50 [1] is on record?
The IC50 was 38.2 nM.

What about the Ki [2] of the same compound?
The Ki was 3.8 nM.

`CCNc1ncc2cc(-c3ccc(-c4cccc(C)n4)cc3Cl)c(=O)n(CCOCCN)c2n1` [Example I-64, 8-[2-(2-Aminoethoxy)ethyl]-6-[2-chloro-4-(6-methyl-2-pyridyl)phenyl]-2-(ethylamino)pyrido[2,3-d]pyrimidin-7-one] was tested. Which IC50 [1] did it give?
The IC50 was 35.7 nM.

What about the Ki [2] of the same compound?
The Ki was 2.8 nM.

How did the IC50 [1] turn out when `CCNc1ncc2cc(-c3ccc(-c4cncc(C)n4)cc3Cl)c(=O)n(CCOC3CCNC3)c2n1` (single isomer, unassigned) [Example I-52] was run?
The IC50 was 156 nM.

And the Ki [2]?
Its Ki is 5.6 nM.

How did the IC50 [1] turn out when `CCNc1ncc2cc(-c3ccc(-c4cccc(C)n4)cc3C)c(=O)n(CCOC3CNC3)c2n1` [Example I-31, 8-(2-(azetidin-3-yloxy)ethyl)-2-(ethylamino)-6-(2-methyl-4-(6-methylpyridin-2-yl)phenyl)pyrido[2,3-d]pyrimidin-7(8H)-one] was run?
The IC50 was 127 nM.

What about the Ki [2] of the same compound?
The Ki was 4.6 nM.

For `CCNc1ncc2cc(-c3ccc(-c4cncc(C)n4)cc3Cl)c(=O)n(CCOC3CCCNC3)c2n1` (stereo not shown) [Example I-14, 6-(2-Chloro-4-(6-methylpyrazin-2-yl)phenyl)-2-(ethylamino)-8-(2-(piperidin-3-yloxy)ethyl)pyrido[2,3-d]pyrimidin-7(8H)-one], which IC50 [1] is on record?
The IC50 was 246 nM.

What about the Ki [2] of the same compound?
Its Ki is 14.8 nM.

How did the IC50 [1] turn out when `CCNc1ncc2cc(-c3ccc(-c4cncc(C)n4)cc3Cl)c(=O)n(C[C@H]3CC[C@H](NC)CC3)c2n1` [Example I-17, 6-(2-Chloro-4-(6-methylpyrazin-2-yl)phenyl)-2-(ethylamino)-8-(((1r,4r)-4-(methylamino)cyclohexyl)methyl)pyrido[2,3-d]pyrimidin-7(8H)-one] was run?
Its IC50 is 96 nM.

And the Ki [2]?
The Ki was 4.8 nM.

`CNc1ncc2cc(-c3ccc(-c4cncc(C)n4)cc3Cl)c(=O)n(CCCN)c2n1` [Example I-18, 8-(3-Aminopropyl)-6-[2-chloro-4-(6-methylpyrazin-2-yl)phenyl]-2-(methylamino)pyrido[2,3-d]pyrimidin-7-one] was tested. Which IC50 [1] did it give?
The IC50 was 508 nM.

And the Ki [2]?
The Ki was 13.7 nM.

Which results are given for `CCNc1ncc2cc(-c3ccc(-c4cncc(C)n4)cc3Cl)c(=O)n(CCOCCN)c2n1` [Example I-12, 8-(2-(2-Aminoethoxy)ethyl)-6-(2-chloro-4-(6-methylpyrazin-2-yl)phenyl)-2-(ethylamino)pyrido[2,3-d]pyrimidin-7(8H)-one]?
IC50 [1]: 131 nM; Ki [2]: 4.3 nM
